Values of other authors as cited in patent publication US9801907B2, “Film-coated and/or granulated calcium-containing compounds and use therof in pharmaceutical compositions” (Takeda Nycomed AS, priority 2005, dated 2017).

Tests used:
[1] = annual injections of 150.000-300.000 IU; not in the rate of hip fracture
[2] = parts substance in parts water

Solubility in water at 20° C. [2]	Molecule	overall fracture rate [1]
–	vitamin D	significant reduction
Freely soluble	OC[C@@H](O)[C@@H](O[C@H]1O[C@H](CO)[C@@H](O)[C@H](O)[C@H]1O)[C@H](O)[C@@H](O)CO [Maltitol]	–
Freely soluble	Maltodextrins	–
